Results taken from publication PMC9120017, “Inhibition mechanism of the chloride channel TMEM16A by the pore blocker 1PBC” (Nature Communications, 2022).
Several values for one entry are separate records, joined by “and”; a condition that tells them apart may be missing. Equal entries are not always repeated.

Biological target: T1, wild-type mouse TMEM16A (Mus musculus, UniProt Q8BHY3)
T1 construct: expressed in transfected cells; host or cells: HEK293T
T1 sequence (Q8BHY3 1-960): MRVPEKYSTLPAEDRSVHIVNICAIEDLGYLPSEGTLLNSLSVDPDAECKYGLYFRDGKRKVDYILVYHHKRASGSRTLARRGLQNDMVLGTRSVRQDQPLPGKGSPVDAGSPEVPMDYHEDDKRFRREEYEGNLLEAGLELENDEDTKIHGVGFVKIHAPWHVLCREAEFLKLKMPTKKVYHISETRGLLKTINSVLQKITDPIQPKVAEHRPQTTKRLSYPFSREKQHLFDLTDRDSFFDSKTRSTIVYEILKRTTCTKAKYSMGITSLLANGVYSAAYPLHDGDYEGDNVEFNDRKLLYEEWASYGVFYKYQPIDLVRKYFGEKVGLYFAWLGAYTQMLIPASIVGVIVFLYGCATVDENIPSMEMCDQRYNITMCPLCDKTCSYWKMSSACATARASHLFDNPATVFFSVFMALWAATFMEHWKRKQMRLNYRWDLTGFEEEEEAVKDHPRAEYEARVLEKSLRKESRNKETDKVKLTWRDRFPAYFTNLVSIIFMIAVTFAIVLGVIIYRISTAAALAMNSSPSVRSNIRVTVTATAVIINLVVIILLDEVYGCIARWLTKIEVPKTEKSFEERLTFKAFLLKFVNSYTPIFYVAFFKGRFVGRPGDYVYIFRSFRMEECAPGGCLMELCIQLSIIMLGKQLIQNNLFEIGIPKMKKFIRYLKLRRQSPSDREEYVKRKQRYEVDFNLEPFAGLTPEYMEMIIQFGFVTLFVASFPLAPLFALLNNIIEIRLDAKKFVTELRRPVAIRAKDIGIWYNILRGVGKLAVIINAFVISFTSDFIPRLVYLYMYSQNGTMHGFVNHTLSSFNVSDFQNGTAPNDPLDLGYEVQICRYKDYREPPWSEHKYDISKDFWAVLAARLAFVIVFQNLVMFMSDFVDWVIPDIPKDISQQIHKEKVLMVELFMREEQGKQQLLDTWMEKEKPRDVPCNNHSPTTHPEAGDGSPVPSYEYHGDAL
Assay: Global fit of 1PBC inhibition profiles to an open-channel block mechanism
Assay type: cell-based
From the text: The inhibition profiles of 1PBC at different Ca^2+ concentrations were fitted to a mechanism assuming that the blocker preferentially binds to the open state. This was incorporated by adding a blocker binding step to the open state in a gating mechanism that we described previously[28] (Supplementary Fig. 9a). The matrix notation of this mechanism[73] is 4 Q=−k01−bk07v07^δb/2k0100000bk07v07^δb/2k10−k10−k12k12000000k21−k21−k23−k24k23k2400000k32−k32−k35v35^δCa/20k35v35^δCa/20000xk42v42^δCa/20−xk42v42^δCa/2−k45k4500000xk53v53^δCa/2k54−xk53v53^δCa/2−k54−k56v56^δCa/2k56v56^δCa/2000000xk65v65^δCa/2−xk65v65^δCa/20k70v70^δb/2000000−k70v70^δb/2 where x and b are the molar concentration of Ca^2+ and the blocker respectively, and the subscripts indicate the transition described by the rate constant k in s^−1, for example, k01 corresponds to the rate constant of the transition from state 0 to 1. δb and δCa are the fraction of membrane potential that modulates the corresponding transitions. […]
The equilibrium occupancy of states was calculated using[73],[74]7 P∞=P(0)(Vλ=0V^−1λ=0) where P(0) is the initial occupancy and V can be obtained from the Eigen decomposition of Q8 Q=VΛV^−1 and9 Λ=λ1⋱λnV=v11⋯vn1⋮⋱⋮v1n⋯vnn are the Eigenvalue and Eigenvector matrices respectively. The open probability calculated using Eq. 7 was used to compute the squared difference for each data point. […]

- Apparent valence δb (fit at +80 and −80 mV): ~ 0.27 and 0.27 ± 0.025
- Kd (zero mV, read-out: Kd 1PBC (open state)): ~3.6 µM and 3.6 µM
Structure (SMILES): N#Cc1c(C(F)(F)F)cc(O)n2c1nc1ccccc12 [1PBC]
